In patent US20250236629A1, “MEDIUM- OR MACRO-CYCLIC BENZYL-SUBSTITUTED HETEROCYCLE DERIVATIVES AND RELATED USES” (CENTESSA PHARMACEUTICALS (UK) LIMITED, priority 2022, published 2025):
Where two headings read alike, the source gives them in different places.

How the values were obtained:
[1] = target: T1, human orexin type 2 receptor (hOX2R) (Homo sapiens, UniProt O43614); test: Orexin type 2 receptor agonist activity, intracellular Ca2+ (FLIPR TETRA) in CHO cells; assay type: cell-based; conditions: CHO cells expressing hOX2R; Ca2+ fluorescence area; 100% = 10 nM human orexin A; read-out: hOx2 pEC50 (converted)
T1 construct: the Orexin receptor cDNA was inserted into pcDNA3.1(+) plasmid vector; expressed in transfected cells
T1 sequence (O43614 1-444): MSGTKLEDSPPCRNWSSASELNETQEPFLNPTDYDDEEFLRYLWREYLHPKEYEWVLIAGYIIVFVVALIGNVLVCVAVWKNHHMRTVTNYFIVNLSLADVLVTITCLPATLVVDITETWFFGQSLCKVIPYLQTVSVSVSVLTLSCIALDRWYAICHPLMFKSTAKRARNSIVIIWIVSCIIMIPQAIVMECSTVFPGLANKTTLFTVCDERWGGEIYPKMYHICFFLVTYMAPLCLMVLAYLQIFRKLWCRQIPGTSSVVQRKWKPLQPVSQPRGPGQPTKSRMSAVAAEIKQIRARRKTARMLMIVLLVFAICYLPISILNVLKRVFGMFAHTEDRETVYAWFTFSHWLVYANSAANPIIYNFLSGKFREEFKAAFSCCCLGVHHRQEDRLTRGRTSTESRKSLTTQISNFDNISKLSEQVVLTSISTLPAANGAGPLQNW
Protocol: Stable cell line generation. Obtainment of cells stably expressing either human orexin type 2 or human orexin type 1 receptor: to obtain a stable cell line the Orexin receptor cDNA was inserted into pcDNA3.1(+) plasmid vector and clones identified by G418 drug resistance selection. […] A single clone for OX2R—CHO and OX1R—CHO were grown in bulk and frozen to generate a cell bank for routine screening.
Measurement of orexin type 2 receptor agonist activity. Chinese hamster ovary (CHO) cells expressing human orexin type 2 receptor (hOX2R) or human orexin type 1 receptor (hOX1R) were seeded in each well of 384 well black clear bottom plates (BD Flacon) at 10,000 cells per well and cultured for 24 hr in an Ham's F12 (Gibco) medium containing 10% fetal calf serum (Sigma Aldrich) under the conditions of 37° C., 5% CO2. After removal of the medium, 50 μl of assay buffer 1 (0.1% bovine serum albumin (Sigma Aldrich), 20 mM HEPES (Molecular Dimensions), […] probenecid (Sigma Aldrich), 1× Calcium 5 dye (Molecular Devices) in Hank's balanced salt solution (Invitrogen)) was added, and the cells were incubated for 60 min under the conditions of 37° C., 5% CO2. A test compound was dissolved in dimethyl sulfoxide (Sigma Aldrich) to 10 mM, and then diluted with assay buffer 2 (20 mM HEPES, Hank's balanced salt solution, 0.1% bovine serum albumin). For the reaction, a test compound solution (10 μl) was added using Fluorescent Imaging Plate Reader TETRA (FLIPR TETRA: manufactured by Molecular Devices), a fluorescence value (excitation wavelength 488 nm, measurement wavelength 570 nm) of each well was measured every one second for 2 min, and the agonist activity was determined using the area of the fluorescence value as an indicator of intracellular Ca^2+ concentration. The agonist activity of the test compound was calculated assuming that the fluorescence value of the well added with only the dilution buffer was 0% and the fluorescence value of the well added with 10 nM human orexin A (Tocris) buffer was 100%.
Values of hOx2 pEC50 in Table B are presented in ranges, in which 6.0≤“+”<7.0, 7.0≤“++”<8.0, 8.0≤“+++”<9.0, and 9.0≤“++++”<10.4.

[2] = test system: wild type (WT) colony mates; test: Wake-promoting efficacy of oral small molecules, piezoelectric sleep/wake monitoring, WT mice; assay type: in vivo, mouse; conditions: dosed 5 h after light onset
Protocol: (§1) Wake-promoting efficacy of oral small molecules. Wake-promoting efficacy was evaluated in the […]) mouse model of NT1 and wild type (WT) colony mates. Mice were monitored in home cages using piezoelectric sensors for rapid, non-invasive classification of sleep and wakefulness by unsupervised machine learning on physiologically relevant readouts, such as body movement and breath rate. Piezoelectric detection is highly correlated with conventional time-intensive electroencephalogram/electromyography measures of sleep/wake states in both WT and NT1 mice. In a counterbalanced, repeated-measures design, mice were orally dosed at 5 h after light onset with test articles and vehicle.

[3] = DCM
[4] = test system: B6.Cg-Tg(HCRT-MJD)1Stak/J (Atax) mouse model of NT1; test: Wake-promoting efficacy of oral small molecules, piezoelectric sleep/wake monitoring, Atax mice; assay type: in vivo; conditions: dosed 5 h after light onset
Protocol: as §1

[5] = DCM; remark: listed apart in the source
OX2R = target: T2, OX2R (Mus musculus, UniProt P58308); conditions: cited from earlier work
T2 construct: host or cells: mice (WT, orexin-deficient and NT1 models), endogenous receptor in brain
T2 sequence (P58308 1-460): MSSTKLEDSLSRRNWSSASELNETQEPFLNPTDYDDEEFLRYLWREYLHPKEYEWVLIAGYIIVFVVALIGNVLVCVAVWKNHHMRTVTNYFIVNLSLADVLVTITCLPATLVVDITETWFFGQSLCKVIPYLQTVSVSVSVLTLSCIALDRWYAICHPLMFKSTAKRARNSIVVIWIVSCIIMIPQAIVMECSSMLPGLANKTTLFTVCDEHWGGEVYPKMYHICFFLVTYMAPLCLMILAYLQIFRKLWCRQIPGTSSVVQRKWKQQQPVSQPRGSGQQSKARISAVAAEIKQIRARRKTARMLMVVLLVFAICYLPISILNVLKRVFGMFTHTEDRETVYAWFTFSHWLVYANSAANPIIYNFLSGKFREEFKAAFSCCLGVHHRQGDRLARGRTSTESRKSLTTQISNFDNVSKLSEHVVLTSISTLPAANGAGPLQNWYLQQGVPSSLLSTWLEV

Compound | EC50 [1] [nM] | Wake % time 1 h post dose (increase from vehicle) ([2]; oral dose 10 mg/kg) [%] | Wake % time 1 h post dose (increase from vehicle) ([4]; oral dose 1 mg/kg) [%] | Wake % time 1 h post dose (increase from vehicle) ([4]; oral dose 3 mg/kg) [%] | also measured
CNCCOc1ccccc1-c1cccc(C[C@@H]2NCC3(CC3)[C@@H]2NS(=O)(=O)C(F)F)c1F |  |  |  |  | ring closure, yield after HPLC ([5]; the molecule shown is the open-chain precursor, other bond, 13-membered ring, triphosgene/TEA, then K2CO3, then MeCN, 0.2 mM, 60.0 °C): 16%
1,1-difluoro-N-((4^2S,4^3R)-1^3,4^4,4^4-trifluoro-6-methyl-5-oxo-9-oxa-6-aza-4 (2,1)-pyrrolidina-1 (1,2),2 (1,3)-dibenzenacyclononaphane-4^3-yl) methanesulfonamide_cis racemic |  |  |  |  | ring closure, isolated yield ([3]; other bond, 13-membered ring, triphosgene/TEA, then K2CO3, then MeCN, 0.4 mM, 20.0 °C): 28.5%
O=C1CCOc2c(F)cccc2-c2cccc(c2F)C[C@H]2[C@@H](NS(=O)(=O)C3(F)CC3)CCCN12 [Example 48, N-((4^2S,4^3S)-13,22-difluoro-5-oxo-8-oxa-4 (2,1)-piperidina-1 (1,2),2 (1,3)-dibenzenacyclooctaphane-4^3-yl)-1-fluorocyclopropane-1-sulfonamide] | 0.0398 to 1 | 34.8 | 40.5 | 48.0 | Wake % time 1 h post dose (increase from vehicle) ([2]; oral dose 3 mg/kg): 18.6%; Wake % time 1 h post dose (increase from vehicle) ([4]; oral dose 0.3 mg/kg): 44.4%
O=C1CCCN2C(=O)CCOc3ccccc3-c3cccc(c3F)CC12 (stereo not shown) |  |  |  |  | ring closure, isolated yield ([3]; from O=C(O)CCOc1ccccc1-c1cccc(CC2NCCCC2=O)c1F, amide bond, 12-membered ring, DMC (2-chloro-1,3-dimethylimidazolinium chloride)/DIEA, 2.7 mM, 25.0 °C, 12.0 h): 53%
O=C1CCCN2C(=O)CCOc3ccccc3-c3cccc(c3)CC12 (stereo not shown) |  |  |  |  | ring closure, isolated yield ([3]; from O=C(O)CCOc1ccccc1-c1cccc(CC2NCCCC2=O)c1, amide bond, 12-membered ring, DMC (2-chloro-1,3-dimethylimidazolinium chloride)/DIEA, 2.56 mM, 25.0 °C, 12.0 h): 52%
O=C1CCOc2c(F)cccc2-c2cccc(c2)C[C@H]2[C@@H](NS(=O)(=O)C3(F)CC3)CCCN12 [Example 49, 1-fluoro-N-((4^2S,4^3S)-1^3-fluoro-5-oxo-8-oxa-4 (2,1)-piperidina-1 (1,2),2 (1,3)-dibenzenacyclooctaphane-4^3-yl)cyclopropane-1-sulfonamide] | 0.0398 to 1 |  |  |  | ring closure, yield after HPLC ([5]; from O=C(O)CCOc1c(F)cccc1-c1cccc(C[C@@H]2NCCC[C@@H]2NS(=O)(=O)C2(F)CC2)c1, amide bond, 12-membered ring, DMC (2-chloro-1,3-dimethylimidazolinium chloride)/DIEA, 1.84 mM, 20.0 °C, 4.0 h): 71%
COc1ccc(-c2cccc(C(=O)N(C)C)c2)cc1S(=O)(=O)Nc1cccc(NCCNC(=O)c2ccccc2N(C)C)c1 [YNT-185] |  |  |  |  | sleep-onset REM periods and cataplexy-like events (OX2R; NT1 mouse model): decrease sleep-onset REM periods and cataplexy-like events; wakefulness (OX2R; intraperitoneally or ICV, wild type (WT) and orexin ligand-deficient mice): modestly increases wakefulness

Second part, led by results:

EC50 [1] [nM] | Compound | Wake % time 1 h post dose (increase from vehicle) ([2]; oral dose 10 mg/kg) [%] | Wake % time 1 h post dose (increase from vehicle) ([4]; oral dose 1 mg/kg) [%] | Wake % time 1 h post dose (increase from vehicle) ([4]; oral dose 3 mg/kg) [%] | also measured
0.0398 to 1 | O=C1CCOc2c(F)cc(F)cc2-c2cccc(c2F)C[C@H]2[C@@H](NS(=O)(=O)C3(F)CC3)CCCN12 [Example 47, 1-fluoro-N-((4^2S,4^3S)-1^3,1^5,2^2-trifluoro-5-oxo-8-oxa-4 (2,1)-piperidina-1 (1,2),2 (1,3)-dibenzenacyclooctaphane-4^3-yl)cyclopropane-1-sulfonamide] | 39.0 | 41.8 | 40.4 | Wake % time 1 h post dose (increase from vehicle) ([2]; oral dose 1 mg/kg): 20.7%; Wake % time 1 h post dose (increase from vehicle) ([2]; oral dose 3 mg/kg): 37.6%; ring closure, isolated yield ([3]; from O=C(O)CCOc1c(F)cc(F)cc1-c1cccc(C[C@@H]2NCCC[C@@H]2NS(=O)(=O)C2(F)CC2)c1F, amide bond, 12-membered ring, DMC (2-chloro-1,3-dimethylimidazolinium chloride)/DIEA, 1.56 mM, 25.0 °C, 1.0 h): 44%; Wake % time 1 h post dose (increase from vehicle) ([4]; oral dose 0.3 mg/kg): 41.3%
0.0398 to 1 | O=C1CCOc2c(F)cccc2-c2cccc(c2F)C[C@H]2[C@@H](NS(=O)(=O)C3(F)CC3)[C@@H](F)CCN12 [Example 44, 1-fluoro-N-((4^2S,4^3R,4^4S)-1^3,2^2,4^4-trifluoro-5-oxo-8-oxa-4 (2,1)-piperidina-1 (1,2),2 (1,3)-dibenzenacyclooctaphane-4^3-yl)cyclopropane-1-sulfonamide] |  |  |  | ring closure, yield after HPLC ([5]; from O=C(O)CCOc1c(F)cccc1-c1cccc(C[C@@H]2NCC[C@H](F)[C@@H]2NS(=O)(=O)C2(F)CC2)c1F, amide bond, 12-membered ring, DMC (2-chloro-1,3-dimethylimidazolinium chloride)/DIEA, 0.165 mM, 25.0 °C, 4.0 h): 42%
0.0398 to 1 | O=C1CCOc2c(F)cc(F)cc2-c2cccc(c2F)C[C@H]2[C@@H](NS(=O)(=O)C3(F)CC3)[C@@H](F)CCN12 [Example 43, 1-fluoro-N-((4^2S,4^3R,4^4S)-1^3,1^5,2^2,4^4-tetrafluoro-5-oxo-8-oxa-4 (2,1)-piperidina-1 (1,2),2 (1,3)-dibenzenacyclooctaphane-4^3-yl)cyclopropane-1-sulfonamide] |  |  |  | ring closure, yield after HPLC ([5]; from O=C(O)CCOc1c(F)cc(F)cc1-c1cccc(C[C@@H]2NCC[C@H](F)[C@@H]2NS(=O)(=O)C2(F)CC2)c1F, amide bond, 12-membered ring, DMC (2-chloro-1,3-dimethylimidazolinium chloride)/DIEA, 0.148 mM, 20.0 °C, 4.0 h): 77%
0.0398 to 1 | O=C1CCOc2c(F)cc(F)cc2-c2cccc(c2F)C[C@H]2[C@@H](NS(=O)(=O)CF)[C@@H](F)CCN12 [Example 41, 1-fluoro-N-((4^2S,4^3R,4^4S)-1^3,1^5,2^2,4^4-tetrafluoro-5-oxo-8-oxa-4 (2,1)-piperidina-1 (1,2),2 (1,3)-dibenzenacyclooctaphane-4^3-yl)methanesulfonamide] | 28.0 | 32.4 | 38.2 | Wake % time 1 h post dose (increase from vehicle) ([2]; oral dose 30 mg/kg): 31.5%
0.0398 to 1 | O=C1CCOc2c(F)cccc2-c2cccc(c2F)C[C@H]2[C@@H](NS(=O)(=O)CF)[C@@H](F)CCN12 [Example 42, 1-fluoro-N-((4^2S,4^3R,4^4S)-1^3,2^2,4^4-trifluoro-5-oxo-8-oxa-4 (2,1)-piperidina-1 (1,2),2 (1,3)-dibenzenacyclooctaphane-4^3-yl)methanesulfonamide] | 22.8 | 33.7 | 34.2 | Wake % time 1 h post dose (increase from vehicle) ([2]; oral dose 3 mg/kg): 17.1%; Wake % time 1 h post dose (increase from vehicle) ([2]; oral dose 30 mg/kg): 37.7%
